The test system of series [1] is M-HeLa. Description: Cytotoxicity assay (Cytell Cell Imaging, Cell Viability Bio App). Particulars: read-out: Cytotoxic effects (IC50) M-HeLa; cancer cell line M-HeLa; tested at 1–100 μM; mean ± SD, three repeats.
A short description of a further series: in vitro. Particulars: human.
Series [2] relates to PANC-1. Put plainly: Cytotoxicity assay (Cytell Cell Imaging, Cell Viability Bio App). Particulars: read-out: Cytotoxic effects (IC50) PANC-1; cancer cell line PANC-1; tested at 1–100 μM; mean ± SD, three repeats.
Series [3] has as its system HuTu 80. Described as above. Particulars: read-out: Cytotoxic effects (IC50) HuTu 80; cancer cell line HuTu 80; tested at 1–100 μM; mean ± SD, three repeats.
For series [4], the system named is HuTu 80. Particulars: human.
The test system of series [5] is M-HeLa. Particulars: for IC50: human.
The test system of series [6] is PANC-1. Particulars: human.
The next series concerns M-HeLa cell lines. Description: Cell cycle analysis by flow cytometry (propidium iodide). It is filed as cell-based, human. Particulars: 24 h, control 68.1. As to the method:
Cell cycle analysis by quantification of DNA content is a reliable method to investigate which phase cell cycle has been arrested, wherein propidium iodide dye is used which binds in proportion to the amount of DNA present in the cell. […] The results reveal that 3f caused an increase in % of G1 arrest. Compound 3f was on 81.4% and 83.8% at 50 and 100 µM, respectively, which is more than control cells (68.1%) (Figure 9).
The DNA content and cell-cycle distribution after genistein treatment were estimated by flow cytometry. Cell seeding, drug treatment and ethanol fixation were similar to cell proliferation assay. After washing with PBS, genistein and daidzein-treated and -fixed cells were suspended in 150 μL of PBS, then 0.5 mL phosphate-citrate buffer (0.05 M, pH 4.0) was added and the suspension was incubated at room temperature for 5 min to facilitate the extraction of low-molecular-weight DNA. Following centrifugation, the cells were resuspended in 150 μL DNA staining solution (20 μg/mL propidium iodide, 200 μg/mL […], and 0.1% Triton X-100) and incubated in the CO2 incubator (37 °C for 30 min). Cell cycle distribution was determined by fluorescence-activated cell sorting analysis of propidium iodide-stained ethanol-fixed cells using a Guava EasyCyte (Guava easy Cyte, MERCK, Kenilworth Union County, NJ, USA).
For orientation: In flow cytometry, cells or beads pass a laser one at a time.

The subject of a further series is M-HeLa cells. Put plainly: Cell apoptosis analysis by flow cytometry (annexin V-FITC / propidium iodide). Particulars: 24 h. The format is cell-based, human. As to the method: Cell Culture. M-HeLa cells at 1 × 10^6 cells/well in a final volume of 2 mL were seeded into 6-well plates. After 24 h of incubation, various concentrations of Compounds 2f and 3f were added to wells.
Cell Apoptosis Analysis. The cells were harvested at 2000 rpm for 5 min and, then, washed twice with ice-cold PBS, followed by resuspension in binding buffer. Next, the samples were incubated with 5 μL of annexin V-FITC and 5 μL of propidium iodide for 15 min at room temperature in the dark. Finally, the cells were analyzed by flow cytometry (Guava easy Cyte, MERCK, Kenilworth Union County, NJ, USA). The experiments were repeated three times.

Where [7] appears, read: Chang Liver cells (normal liver cell line).

Read-outs that look alike come from different tables or passages of the source.

One may read the IC50 as the midpoint of a concentration-inhibition curve.

In the case of `Cc1cnc(Nc2ccccc2)s1` [Compound 2e], the concentration for half-maximal inhibition (IC50) in the series with M-HeLa [1] is 92 ± 8.2 µM; in “in vitro” (setting [7]) it was more than 100 µM; with PANC-1 [2], more than 100 µM; in the series with HuTu 80 [3] it was more than 100 µM.

Consider `CCOC(=O)c1cnc(Nc2c([N+](=O)[O-])cc([N+](=O)[O-])c3no[n+]([O-])c23)s1` [Compound 3c, 7-(5-(ethoxycarbonyl)thiazol-2-ylamino)-4,6-dinitrobenzo[c][1,2,5]oxadiazole 1-oxide], for which the IC50 was more than 100 µM with HuTu 80 [4], 100 ± 9.4 µM in “in vitro”, 95.8 ± 8.4 µM with M-HeLa [5] and more than 100 µM in the series with PANC-1 [6].

Take `Cc1cnc(N(c2ccccc2)c2c([N+](=O)[O-])cc([N+](=O)[O-])c3no[n+]([O-])c23)s1` [Compound 3e, 7-((5-methylthiazol-2-yl)(phenyl)amino)-4,6-dinitrobenzo[c][1,2,5]oxadiazole 1-oxide]: the IC50 was more than 100 µM in the series with HuTu 80 [4], 85.8 ± 7.4 µM in “in vitro”, 79 ± 6.3 µM in the series on M-HeLa [5] and more than 100 µM with PANC-1 [6].

Turning to `Cc1cnc(N)s1` [Compound 2b], the IC50 is 92 ± 7.9 µM in the series on M-HeLa [1], more than 100 µM in “in vitro” (setting [7]), more than 100 µM in the series on PANC-1 [2] and more than 100 µM with HuTu 80 [3].

Take `CCOC(=O)c1csc(N)n1` [Compound 2c]: the IC50 in the series on M-HeLa [1] is 63.3 ± 5.7 µM; in the series “in vitro” (setting [7]), 95.4 ± 8.7 µM; in the series on PANC-1 [2] it was more than 100 µM; in the series with HuTu 80 [3], more than 100 µM.

`COc1ccc(N(c2nccs2)c2c([N+](=O)[O-])cc([N+](=O)[O-])c3no[n+]([O-])c23)cc1` [Compound 3f, 7-((4-methoxyphenyl)(thiazol-2-yl)amino)-4,6-dinitrobenzo[c][1,2,5]oxadiazole 1-oxide]: in the series with Chang Liver, the “Toxicity in words, normal cells (Chang Liver)” value (“Toxicity in words, normal cells” for short) was “not toxic”. For the same compound, the entries for the “Cells in G1 phase” value in the series on M-HeLa cell lines (50 µM) and in the series with M-HeLa cell lines (100 µM) were 81.4% and 83.8%, respectively. The IC50 with HuTu 80 [4] is more than 100 µM; in the series “in vitro”, more than 100 µM; in the series on M-HeLa [5], 56.6 ± 4.7 µM; in the series on PANC-1 [6], more than 100 µM. Further, the figures for the “Early apoptotic cells (Ea)” value in the series with M-HeLa cells (50 µM) and with M-HeLa cells (100 µM) were 10.73% and 17.29%, respectively. In addition, in the series on M-HeLa [5], the “Cytotoxicity in words, M-HeLa” value is on record as “moderate cytotoxicity”.

As for `O=[N+]([O-])c1cc([N+](=O)[O-])c2no[n+]([O-])c2c1N(c1ccccc1)c1nccs1` [Compound 3d, 4,6-dinitro-7-(phenyl(thiazol-2-yl)amino)benzo[c][1,2,5]oxadiazole 1-oxide], the “Toxicity in words, normal cells” value in the series with Chang Liver is given as “not toxic”. In addition, the IC50 in the series on HuTu 80 [4] was more than 100 µM; in “in vitro”, 86.1 ± 7.8 µM; in the series on M-HeLa [5], 61 ± 5.6 µM; with PANC-1 [6], more than 100 µM. Besides, the “Cytotoxicity in words, M-HeLa” value in the series with M-HeLa [5] is given as “moderate cytotoxicity”.

`O=[N+]([O-])c1cc([N+](=O)[O-])c2no[n+]([O-])c2c1Nc1nccs1` [Compound 3a, 4,6-dinitro-7-(thiazol-2-ylamino)benzo[c][1,2,5]oxadiazole 1-oxide]: the “Toxicity in words, normal cells” value in the series with Chang Liver is “not toxic”. The IC50 with HuTu 80 [4] is more than 100 µM; in “in vitro”, more than 100 µM; in the series on M-HeLa [5], 61 ± 5.4 µM; with PANC-1 [6], more than 100 µM. In addition, in the series on M-HeLa [5], the “Cytotoxicity in words, M-HeLa” value was “moderate cytotoxicity”.

Consider `O=c1[nH]cc(F)c(=O)[nH]1` [5-Fluorouracil, reference compound], for which the 50% inhibitory concentration (IC50) in the series on M-HeLa [1] was 62 ± 4.9 µM; in the series “in vitro” (setting [7]), 72.4 ± 6.5 µM; with PANC-1 [2] it was 68.3 ± 5.7 µM; in the series on HuTu 80 [3] it was 65.2 ± 5.5 µM.

Take `Nc1nccs1` [Compound 2a]: the IC50 is more than 100 µM in the series with HuTu 80 [4], more than 100 µM in the series “in vitro”, 91 ± 8.3 µM with M-HeLa [5] and more than 100 µM in the series on PANC-1 [6].

As for `Cc1cnc(Nc2c([N+](=O)[O-])cc([N+](=O)[O-])c3no[n+]([O-])c23)s1` [Compound 3b, 7-(5-methylthiazol-2-ylamino)-4,6-dinitrobenzo[c][1,2,5]oxadiazole 1-oxide], the IC50 is more than 100 µM with HuTu 80 [4], more than 100 µM in the series “in vitro”, 70 ± 6.2 µM in the series with M-HeLa [5] and more than 100 µM in the series on PANC-1 [6].

As to `COc1ccc(Nc2nccs2)cc1` [Compound 2f], the IC50 in the series on M-HeLa [1] is 93.8 ± 8.4 µM; in “in vitro” (setting [7]), more than 100 µM; in the series with PANC-1 [2], more than 100 µM; with HuTu 80 [3], more than 100 µM.

Values taken from PMC8305974, “Novel Hybrid Compounds Containing Benzofuroxan and Aminothiazole Scaffolds: Synthesis and Evaluation of Their Anticancer Activity” (International Journal of Molecular Sciences, 2021).
